# Measured values published in patent US20100105864A1, “PROPHYLACTIC OR THERAPEUTIC AGENT FOR DIARRHEA” (priority 2007, published 2010).
# Marks after values point to notes of the source that are not given here.
# Tests used:
# [1] = tested on: Balb/c mice; test: Anticancer agent (5-FU)-induced diarrhea model; type: in vivo
# Protocol: To each of Balb/c mice, an anticancer agent was administered to induce diarrhea, and γ-Glu-Val-Gly (hereinafter, referred to as “γEVG”) was studied for its inhibitory effect on diarrhea. To each of 6-week-old Balb/c mice fed with a low protein nutrient diet (4% casein diet) for 1 week, 5-FU (1 mg/animal/day) was intraperitoneally administered for consecutive 3 days. The diarrhea developed around Day 5 after the third administration of the anticancer agent, and the diarrhea appeared in all cases on Day 7. The presence or absence of diarrhea was determined based on the presence or absence of the stool in the tail head area. As the statistical test, a chi-square (χ^2) test for the control group (presence or absence of diarrhea) was employed, and p<0.05 was regarded as significant.
# Each administration of 0.01% γEVG was started in free water intake at the same time as the first administration of the anticancer agent, and continued until completion of the experiment.
# To each of Balb/c mice, an anticancer agent was administered to induce diarrhea, and a calcium receptor activator (hereinafter, referred to as “CaSR agonist”) was studied for its inhibitory effect on diarrhea. To each of 6-week-old Balb/c mice fed with a low protein nutrient diet (4% casein diet) for 1 week, 5-FU (1 mg/animal/day) was intraperitoneally administered for consecutive 3 days. The diarrhea developed around Day 5 after the third administration of the anticancer agent, and the diarrhea appeared in all cases on Day 7. The presence or absence of diarrhea was determined based on the presence or absence of the stool in the tail head area. As the statistical test, a chi-square (χ^2) test for the control group (presence or absence of diarrhea) was employed, and p<0.05 was regarded as significant.
# The administration of the CaSR agonist was started in free water intake at the same time as the administration of the low protein nutrient diet, and continued until completion of the experiment.
# [2] = tested on: rat large intestine loop; test: Fluid absorption in rat large intestine loop method (PGE2-stimulated); type: in vivo, rats; conditions: injected into loop 30 minutes after PGE2 i.p.; measured after 1 hour
# Protocol: The cecum and large intestine were extirpated from the abdomen of each of male SD (IGS) rats under pentobarbital anesthesia, and the site 5 cm away from the area just under the cecum was ligated to form a large intestine loop Immediately after the loop had been formed, PGE2 (4 μg/ml/kg, SIGMA) was intraperitoneally administered, and after 30 minutes, a medicament, which had been dissolved in 2 ml of Tyrode's solution (NaCl: 136.9 mM, KCl: 2.7 mM, CaCl2.2H2O: 1.8 mM, MgCl2.6H2O: 1.04 mM, NaH2PO4.2H2O: 0.04 mM, NaH2PO4.2H2O: 0.04 mM, glucose: 5.55 mM, NaHCO3: 11.9 mM), was injected into the prepared loop (the medicament solution was adjusted so that the pH would be 6.5 to 7.5). As a control, Tyrode's solution free of any medicament (vehicle) was administered. After 1 hour, the loop weight, the loop weight after solution removal, and the loop area were measured to calculate a solution weight per unit area remaining in the loop.
# The remaining solution amount per unit area was calculated with the following equation:
# Remaining solution amount per unit area(g/cm^2)=(Loop weight−Loop weight after solution removal)/Loop area.
# The fluid absorption was evaluated by calculating an inhibitory rate from the following equation:
# Inhibitory rate(%)=100−(Remaining solution amount per unit area under drug administration−Remaining solution amount per unit area in base(average))/(Remaining solution amount per unit area under vehicle administration(average)−Remaining solution amount per unit area in base(average))×100.
# (Base=case where no stimulation is given (no treatment with PGE2))
structure (smiles),measurement,setting,value
N[C@@H](CCC(=O)N[C@@H](CS)C(=O)NCC(=O)O)C(=O)O [γ-Glu-Cys-Gly],mice that did not exhibit the diarrhea symptom,"[1]; 0.5% administration group, free water intake from start of low protein diet, control all 9/9 with diarrhea",2 out of 5
same,Ratio of individuals that developed diarrhea,"[1]; 0.5% in free water intake from start of low protein diet, control 9/9, p < 0.05 chi-square",3/5*
same,fluid absorption (inhibitory rate from remaining solution amount per unit area),[2],promoted fluid absorption
